# In patent publication US9309212B2, “Compositions and methods for modulating the activity of Epstein-Barr nuclear antigen 1” (The Wistar Institute, priority 2011, dated 2016):
# Target: T1, EBNA1 (Epstein-Barr virus, UniProt P03211)
# T1 construct: expressed in transfected cells; host or cells: 293T cells
# Test: cell-based assay (EBNA1 transcription derepression assay, Qp-luciferase reporter in 293T cells)
# Conditions: final concentration range 125 μM-2 nM, 125000 nM = not active
# Experimental: EBNA1 Transcription Derepression Assay.
# 293T cells were seeded in 10-cm plates in DMEM media with 10% FBS. Following a 18-hour incubation at 37° C. to allow cells to adhere, cells at 50-70% confluence were transfected using 40 μL LIPOFECTAMINE (INVITROGEN) per plate. The cells were transfected with a 4 μg Qp-luciferase reporter plasmid (N1852) and 0.125 μg EBNA1 expression plasmid (N803) or 4 μg Qp-luciferase reporter plasmid (N1852) and 0.125 μg control plasmid (N799) (no EBNA) per plate. After 24 hours, the cells were harvested without trypsin, centrifuged 1200 RPM for 5 minutes and resuspended in DMEM media with 10% FBS at a concentration 100,000 cells per milliliter. Forty μL of this solution […] was dispensed to each well of the white plate using a BIOTEK MICROFLO Select Dispenser. Test compounds were added to achieve a final concentration range of 125 μM-2 nM, as described above. Cells were incubated at 37° C. for 48 hours, harvested and analyzed for luciferase activity using the PROMEGA STEADY-GLO luciferase system and read using a PERKIN ELMER 2104 Multilabel Reader.
# Compounds were screened for activity in the cell-based assay disclosed herein.
# T1 sequence (P03211 whole entry): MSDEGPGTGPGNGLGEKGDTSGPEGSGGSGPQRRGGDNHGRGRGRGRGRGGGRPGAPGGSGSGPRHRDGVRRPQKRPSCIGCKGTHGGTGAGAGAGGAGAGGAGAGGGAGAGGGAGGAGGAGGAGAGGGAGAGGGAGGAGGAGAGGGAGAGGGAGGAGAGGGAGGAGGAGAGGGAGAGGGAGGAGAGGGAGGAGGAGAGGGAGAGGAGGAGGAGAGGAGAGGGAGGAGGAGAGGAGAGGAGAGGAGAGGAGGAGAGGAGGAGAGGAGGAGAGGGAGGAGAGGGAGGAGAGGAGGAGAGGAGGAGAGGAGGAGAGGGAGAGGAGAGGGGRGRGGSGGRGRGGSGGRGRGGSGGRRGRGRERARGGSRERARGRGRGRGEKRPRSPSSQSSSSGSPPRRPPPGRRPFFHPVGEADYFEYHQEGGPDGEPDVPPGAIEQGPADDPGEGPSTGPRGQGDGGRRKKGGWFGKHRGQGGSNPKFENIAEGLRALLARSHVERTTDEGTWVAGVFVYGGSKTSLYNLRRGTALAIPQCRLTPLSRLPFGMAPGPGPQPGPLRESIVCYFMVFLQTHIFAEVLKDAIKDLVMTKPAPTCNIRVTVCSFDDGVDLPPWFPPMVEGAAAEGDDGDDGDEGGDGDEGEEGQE
row,Molecule,IC50 [nM]
1,Cc1csc(NC(=O)c2ccc3occc3c2)n1 [VKE01474],60.2
2,O=C(Oc1ccc2occ([N+](=O)[O-])c2c1)c1ccc(N2CCOCC2)cc1 [VKE01448],30600
3,O=C(Oc1ccc2occ([N+](=O)[O-])c2c1)c1ccno1 [VKE01447],> 125000
4,O=[N+]([O-])c1coc2ccc(OCc3ccccc3)cc12 [VKE01455],27200
5,O=C(Nc1ccc2occc2c1)c1ccc(F)cc1Cl [VKE01457],18.9
6,O=C(Nc1ccccc1F)c1ccc2occc2c1 [VKE01467],674
7,O=C(Nc1ccc2occc2c1)c1ccccc1C(F)(F)F [VKE01459],6520
8,Cc1cc(C)cc(CC(=O)Oc2ccc3occ([N+](=O)[O-])c3c2)c1 [VKE01452],> 125000
9,O=C(Oc1ccc2occ([N+](=O)[O-])c2c1)c1ccc(F)cc1Cl [VKE01451],3280
10,O=C(Cc1ccc(Cl)cc1Cl)Oc1ccc2occ([N+](=O)[O-])c2c1 [VKE01443],> 125000
11,O=C(Oc1ccc2occ([N+](=O)[O-])c2c1)c1ccccc1C(F)(F)F [VKE01449],> 125000
12,CCCCc1ccc(C(=O)Oc2ccc3occ([N+](=O)[O-])c3c2)cc1 [VKE01453],1240
13,O=C(Oc1ccc(Cl)cc1)c1ccc2occc2c1 [VKE01441],9060
14,O=C(Nc1ccncc1)c1ccc2occc2c1 [VKE01473],20800
15,O=C(Nc1ccc2occc2c1)c1ccc(N2CCOCC2)cc1 [VKE01462],298
16,CC(C)(C)c1ccc(NC(=O)c2ccc3occc3c2)cc1 [VKE01469],62.7
17,O=C(Oc1ccc2occ([N+](=O)[O-])c2c1)c1cccnc1 [VKE01444],> 125000

row,Molecule,IC50 [nM]
1,O=C(Nc1ccc2occc2c1)c1cccnc1 [VKE01463],1260
2,CCCCc1ccc(C(=O)Nc2ccc3occc3c2)cc1 [VKE01460],12.3
3,Cc1cc(NC(=O)c2ccc3occc3c2)ccc1Cl [VKE01470],42
4,O=C(Nc1ccc(F)c(F)c1)c1ccc2occc2c1 [VKE01471],847
5,O=C(Oc1ccc2occ([N+](=O)[O-])c2c1)c1ccncn1 [VKE01445],> 125000
6,CCc1ccccc1C(=O)Oc1ccc2occ([N+](=O)[O-])c2c1 [VKE01450],9020
7,O=C(Nc1ccc2occc2c1)c1ncccc1C(F)(F)F [VKE01464],1090
8,O=C(Oc1ccc2occ([N+](=O)[O-])c2c1)c1ncccc1C(F)(F)F [VKE01446],> 125000
9,CCc1ccccc1C(=O)Nc1ccc2occc2c1 [VKE01461],1020
10,O=C(Nc1ccc2occc2c1)c1ccncn1 [VKE01465],1660
11,O=C(Nc1ccc2occc2c1)c1ccno1 [VKE01466],83800
12,O=[N+]([O-])c1coc2ccc(OCc3ccc(OC(F)(F)F)cc3)cc12 [VKE01456],14000
13,CC(C)(C)c1ccc(OC(=O)c2ccc3occc3c2)cc1 [VKE01442],2630
14,O=C(Nc1ccccn1)c1ccc2occc2c1 [VKE01472],152
15,O=C(Nc1ccc2occc2c1)c1ccc(C(F)(F)F)cc1 [VKE01458],4.76
16,O=C(Nc1cccc(Cl)c1)c1ccc2occc2c1 [VKE01468],813
17,O=[N+]([O-])c1coc2ccc(OCc3ccc(Cl)cc3)cc12 [VKE01454],9780

# Target: EBNA1 DNA binding domain (Human herpesvirus 4, UniProt P03211 SEQ:454-607)
# Test: FP; 200 mM NaCl, 20 mM Tris-Cl pH 7.4, 1 mM DTT, 10 ug/mL BSA, 25 C; 5 nM probe; probe performed significantly better in FP than in EMSA comparison
# Conditions: tags: hexa-histidine, E. coli expressed; chain copies: 2; label: CY5 (opl 3016) or FITC (opl 4624); hairpin
# Sequence of EBNA1 DNA binding domain (P03211 454-607): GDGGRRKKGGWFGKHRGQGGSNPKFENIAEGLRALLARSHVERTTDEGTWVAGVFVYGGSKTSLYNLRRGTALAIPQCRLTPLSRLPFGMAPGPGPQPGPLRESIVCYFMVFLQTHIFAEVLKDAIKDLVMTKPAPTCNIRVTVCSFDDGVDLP
row,Molecule,binding result
1,GGGTAGCATATGCTATCTAGATAGCATATGCTACCC (structured_DNA) [EBNA1 BS Hairpin (opl 3016 / opl 4624)],binds
